{"source": "paper PMC9854868", "about": "“Structure–Activity Relationship Studies of Substitutions of Cationic Amino Acid Residues on Antimicrobial Peptides” (Antibiotics, 2022)", "key": {"[1]": {"test_system": "E. coli DH5α", "assay_type": "cell-based, Escherichia coli", "experimental": "(§1) The selected bacterial strains were obtained from the Biological Resource Center, NITE (NBRC; Tokyo, Japan). Escherichia coli DH5α cells were purchased from BioDynamics Laboratory, Inc. (Tokyo, Japan). The antimicrobial activities of the peptides against […] and three Gram-negative bacteria, S. aureus NBRC 13276, E. coli DH5α, P. aeruginosa NBRC 13275, and MDRP were measured using the standard broth microdilution method, as previously described. Briefly, the bacteria were inoculated and grown overnight at 37 °C on the media for other organisms i (agar medium) and then collected with the media for other organisms ii (liquid medium), according to the Japanese Pharmacopoeia 17th Edition. Each peptide was 2-fold serially diluted with an initial concentration of 4000 μM–1.56 μM in PBS for use. Next, 10 μL of the peptide solution per well was added to each well of a sterile 96-well plate. Subsequently, 90 μL per well of inoculation with 10^4 CFUs (colony forming units) per mL was added to each well, and the plate was incubated for 18 h at 35 °C."}, "[2]": {"test_system": "P. aeruginosa NBRC 13275", "assay_type": "cell-based, Pseudomonas aeruginosa", "conditions": "NBRC 13275, 18 h", "experimental": "as §1"}, "[3]": {"test_system": "MDRP", "assay_type": "cell-based, multidrug-resistant Pseudomonas aeruginosa", "conditions": "18 h", "experimental": "as §1"}, "[4]": {"test_system": "S. aureus NBRC 13276", "assay_type": "cell-based, Staphylococcus aureus", "conditions": "NBRC 13276, 18 h", "experimental": "as §1"}, "[5]": {"test_system": "human red blood cells", "conditions": "human RBCs in 172 mM Tris-HCl pH 7.6, 30 min at 37 °C, 100 to 0.39 μM, absorbance 535 nm; DMSO = 0%, M-Lycotoxin = 100%", "experimental": "Human red blood cells (RBCs) were kindly supplied by the Japanese Red Cross Society (Tokyo, Japan) and were collected from volunteers under informed consent. The hemolysis test of peptides was performed using a previously reported method. In short, the RBCs were washed three times with 172 mM Tris-HCl buffer (pH = 7.6, wash buffer: WB), and 1.0 mL of sedimented erythrocytes was then transferred to 9.0 mL of WB. Then, 0.5 mL of this suspension was diluted in WB, and 50 µL of RBC suspension was incubated with 50 µL of each peptide for 30 min at 37 °C (final peptide conc from 100 to 0.39 μM). The suspensions were then centrifuged for 5 min at 400 rpm. The absorbance of the supernatant was measured at a wavelength of 535 nm. M-Lycotoxin [26] was used as a positive control, and the absorbances of the sample by treatment of DMSO and M-Lycotoxin were defined as 0 and 100%."}, "[6]": {"assay": "Digestion assay with proteinase K", "assay_type": "in vitro ADME", "conditions": "proteinase K (isolated protease); proteinase K 0.002% (v/v), peptide 1 mM, 37 °C, 24 h, read-out HPLC, two independent experiments; read-out: remaining peptide after treatment with proteinase K", "experimental": "(§2) The digestion assay was performed using Proteinase K of the digestive enzyme. Peptides (1 mM) were treated with 0.002% (v/v) Proteinase K and peptides were incubated at 37 °C for 2–24 h. A solution (0.1% TFA/H2O/MeCN) was added to quench the enzymatic reaction. The peptides were evaluated using analytical HPLC and a Discovery® BIO Wide Pore C18 column (25 cm × 4.6 mm, solvent A: 0.1% TFA/water, solvent B: 0.1% TFA/MeCN, flow rate: […], gradient: 10–60% gradient of solvent B over 30 min). Reproducibility was confirmed by the two independent experiments."}, "[7]": {"molecular_target": "proteinase K (Parengyodontium album, UniProt P06873)", "sequence (P06873 106-384)": "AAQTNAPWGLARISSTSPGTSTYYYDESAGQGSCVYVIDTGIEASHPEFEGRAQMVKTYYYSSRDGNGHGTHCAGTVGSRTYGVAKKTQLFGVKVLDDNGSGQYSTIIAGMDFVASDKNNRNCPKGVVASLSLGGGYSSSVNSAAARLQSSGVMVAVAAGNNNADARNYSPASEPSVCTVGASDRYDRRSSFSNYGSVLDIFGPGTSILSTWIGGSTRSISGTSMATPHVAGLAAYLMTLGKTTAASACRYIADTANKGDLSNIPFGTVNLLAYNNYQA", "assay": "Digestion assay with proteinase K", "assay_type": "in vitro ADME", "conditions": "proteinase K 0.002% (v/v), peptide 1 mM, 37 °C, 2–24 h, HPLC; replacing Lys with Orn", "experimental": "as §2"}}, "note": "Where two headings read alike, the source gives them in different places. Square brackets hold non-standard residues; d marks the D form. Ends that are not written are not given here. Peptide text beside a SMILES is read from it. Orn = NCCC[C@H](N)C(=O)O; Dab = NCC[C@H](N)C(=O)O; Aib = CC(C)(N)C(=O)O"}
{"molecule": "CC[C@H](C)[C@H](NC(=O)CN)C(=O)N[C@@H](CCCCN)C(=O)N[C@@H](CCCCN)C(=O)N[C@@H](Cc1ccccc1)C(=O)N[C@@H](CC(C)C)C(=O)N[C@@H](CCCCN)C(=O)N[C@@H](CO)C(=O)NC(C)(C)C(=O)N[C@@H](CCCCN)C(=O)N[C@@H](CCCCN)C(=O)N[C@@H](Cc1ccccc1)C(=O)N[C@H](C(=O)N[C@@H](CCCCN)C(=O)NC(C)(C)C(=O)N[C@@H](Cc1ccccc1)C(=O)N[C@@H](CCCCN)C(N)=O)C(C)C", "note": "[Peptide 1] (H-GIKKFLKS[Aib]KKFVK[Aib]FK-NH2)", "values": [{"measurement": "MIC, Gram (–), E.Coli", "setting": "[1]; DH5α, 18 h", "value": 3.13, "unit": "µM"}, {"measurement": "MIC, Gram (–), P.a.", "setting": "[2]", "value": 3.13, "unit": "µM"}, {"measurement": "MIC, Gram (–), MDRP", "setting": "[3]", "value": 3.13, "unit": "µM"}, {"measurement": "MIC, Gram (+), S.a.", "setting": "[4]", "value": 12.5, "unit": "µM"}, {"measurement": "Hemolysis (concentration that showed hemolytic activity greater than 50%)", "setting": "[5]", "value": 100, "unit": "µM"}, {"measurement": "remaining at 24 h, 1 mM", "setting": "[6]", "value": "~20", "unit": "%"}]}
{"molecule": "CC[C@H](C)[C@H](NC(=O)CN)C(=O)N[C@@H](CCCN)C(=O)N[C@@H](CCCN)C(=O)N[C@@H](Cc1ccccc1)C(=O)N[C@@H](CC(C)C)C(=O)N[C@@H](CCCN)C(=O)N[C@@H](CO)C(=O)NC(C)(C)C(=O)N[C@@H](CCCN)C(=O)N[C@@H](CCCN)C(=O)N[C@@H](Cc1ccccc1)C(=O)N[C@H](C(=O)N[C@@H](CCCN)C(=O)NC(C)(C)C(=O)N[C@@H](Cc1ccccc1)C(=O)N[C@@H](CCCN)C(N)=O)C(C)C", "note": "[Peptide 2] (H-GI[Orn][Orn]FL[Orn]S[Aib][Orn][Orn]FV[Orn][Aib]F[Orn]-NH2)", "values": [{"measurement": "MIC, Gram (–), E.Coli", "setting": "[1]; DH5α, 18 h", "value": 3.13, "unit": "µM"}, {"measurement": "MIC, Gram (–), P.a.", "setting": "[2]", "value": 6.25, "unit": "µM"}, {"measurement": "MIC, Gram (–), MDRP", "setting": "[3]", "value": 3.13, "unit": "µM"}, {"measurement": "MIC, Gram (+), S.a.", "setting": "[4]", "value": 12.5, "unit": "µM"}, {"measurement": "Hemolysis (concentration that showed hemolytic activity greater than 50%)", "setting": "[5]", "value": 50, "unit": "µM"}, {"measurement": "remaining at 24 h, 1 mM", "setting": "[6]", "value": 41, "unit": "%"}, {"measurement": "prolongation of half life time (t1/2) against proteinase K versus peptide 1", "setting": "[7]", "value": "up to approximately two times"}]}
{"molecule": "CC[C@H](C)[C@H](NC(=O)CN)C(=O)N[C@@H](CCN)C(=O)N[C@@H](CCN)C(=O)N[C@@H](Cc1ccccc1)C(=O)N[C@@H](CC(C)C)C(=O)N[C@@H](CCN)C(=O)N[C@@H](CO)C(=O)NC(C)(C)C(=O)N[C@@H](CCN)C(=O)N[C@@H](CCN)C(=O)N[C@@H](Cc1ccccc1)C(=O)N[C@H](C(=O)N[C@@H](CCN)C(=O)NC(C)(C)C(=O)N[C@@H](Cc1ccccc1)C(=O)N[C@@H](CCN)C(N)=O)C(C)C", "note": "[Peptide 3] (H-GI[Dab][Dab]FL[Dab]S[Aib][Dab][Dab]FV[Dab][Aib]F[Dab]-NH2)", "values": [{"measurement": "MIC, Gram (–), E.Coli", "setting": "[1]; DH5α, 18 h", "value": 3.13, "unit": "µM"}, {"measurement": "MIC, Gram (–), P.a.", "setting": "[2]", "value": 6.25, "unit": "µM"}, {"measurement": "MIC, Gram (–), MDRP", "setting": "[3]", "value": 6.25, "unit": "µM"}, {"measurement": "MIC, Gram (+), S.a.", "setting": "[4]", "value": 12.5, "unit": "µM"}, {"measurement": "Hemolysis (concentration that showed hemolytic activity greater than 50%)", "setting": "[5]", "value": 25, "unit": "µM"}]}
{"molecule": "CC[C@H](C)[C@H](NC(=O)CN)C(=O)N[C@@H](CCCNC(=N)N)C(=O)N[C@@H](CCCNC(=N)N)C(=O)N[C@@H](Cc1ccccc1)C(=O)N[C@@H](CC(C)C)C(=O)N[C@@H](CCCNC(=N)N)C(=O)N[C@@H](CO)C(=O)NC(C)(C)C(=O)N[C@@H](CCCNC(=N)N)C(=O)N[C@@H](CCCNC(=N)N)C(=O)N[C@@H](Cc1ccccc1)C(=O)N[C@H](C(=O)N[C@@H](CCCNC(=N)N)C(=O)NC(C)(C)C(=O)N[C@@H](Cc1ccccc1)C(=O)N[C@@H](CCCNC(=N)N)C(N)=O)C(C)C", "note": "[Peptide 4] (H-GIRRFLRS[Aib]RRFVR[Aib]FR-NH2)", "values": [{"measurement": "MIC, Gram (–), E.Coli", "setting": "[1]; DH5α, 18 h", "value": 3.13, "unit": "µM"}, {"measurement": "MIC, Gram (–), P.a.", "setting": "[2]", "value": 12.5, "unit": "µM"}, {"measurement": "MIC, Gram (–), MDRP", "setting": "[3]", "value": 12.5, "unit": "µM"}, {"measurement": "MIC, Gram (+), S.a.", "setting": "[4]", "value": 3.13, "unit": "µM"}, {"measurement": "Hemolysis (concentration that showed hemolytic activity greater than 50%)", "setting": "[5]", "value": 6.25, "unit": "µM"}]}
{"molecule": "CC[C@H](C)[C@H](NC(=O)CN)C(=O)N[C@@H](Cc1c[nH]cn1)C(=O)N[C@@H](Cc1c[nH]cn1)C(=O)N[C@@H](Cc1ccccc1)C(=O)N[C@@H](CC(C)C)C(=O)N[C@@H](Cc1c[nH]cn1)C(=O)N[C@@H](CO)C(=O)NC(C)(C)C(=O)N[C@@H](Cc1c[nH]cn1)C(=O)N[C@@H](Cc1c[nH]cn1)C(=O)N[C@@H](Cc1ccccc1)C(=O)N[C@H](C(=O)N[C@@H](Cc1c[nH]cn1)C(=O)NC(C)(C)C(=O)N[C@@H](Cc1ccccc1)C(=O)N[C@@H](Cc1c[nH]cn1)C(N)=O)C(C)C", "note": "[Peptide 5] (H-GIHHFLHS[Aib]HHFVH[Aib]FH-NH2)", "values": [{"measurement": "MIC, Gram (–), E.Coli", "setting": "[1]; DH5α, 18 h", "value": ">50", "unit": "µM"}, {"measurement": "MIC, Gram (–), P.a.", "setting": "[2]", "value": ">50", "unit": "µM"}, {"measurement": "MIC, Gram (–), MDRP", "setting": "[3]", "value": ">50", "unit": "µM"}, {"measurement": "MIC, Gram (+), S.a.", "setting": "[4]", "value": ">50", "unit": "µM"}, {"measurement": "Hemolysis (concentration that showed hemolytic activity greater than 50%)", "setting": "[5]", "value": ">100", "unit": "µM"}]}
{"molecule": "GIGKFLHSAKKFGKAFVGEIMNS-NH2 [Mag2, magainin 2, reference compound]", "values": [{"measurement": "MIC, Gram (–), E.Coli", "setting": "[1]; E. coli DH5α, broth microdilution, 10^4 CFU per mL, 18 h at 35 °C, final concentration 0.39 to 100 μM, lowest concentration that completely inhibited growth", "value": 3.13, "unit": "µM"}, {"measurement": "MIC, Gram (–), P.a.", "setting": "[2]", "value": 12.5, "unit": "µM"}, {"measurement": "MIC, Gram (–), MDRP", "setting": "[3]", "value": 12.5, "unit": "µM"}, {"measurement": "MIC, Gram (+), S.a.", "setting": "[4]", "value": 100, "unit": "µM"}, {"measurement": "Hemolysis (concentration that showed hemolytic activity greater than 50%)", "setting": "[5]", "value": ">100", "unit": "µM"}]}
